Experimental data taken from ChEMBL document CHEMBL5303573, “Mapping human microbiome drug metabolism by gut bacteria and their genes” (Nature, 2019).

Key:
[1] = The drug is tested on Eubacterium biforme strain: DSM3989 for biotransformation. The drug concentrations were measured before and after a 12-h incubation by liquid-chromatography-coupled mass spectrometry (LC–MS); conditions: holdemanella biformis, 2 µM
[2] = parabacteroides johnsonii, 12 h, 2 µM
Description: The drug is tested on Parabacteroides johnsonii strain: DSM18315 for biotransformation. The drug concentrations were measured before and after a 12-h incubation by liquid-chromatography-coupled mass spectrometry (LC–MS)

[3] = The drug is tested on Bacteroides caccae strain: ATCC43185 for biotransformation. The drug concentrations were measured before and after a 12-h incubation by liquid-chromatography-coupled mass spectrometry (LC–MS); conditions: 2 µM
[4] = The drug is tested on Clostridium hathewayi strain: DSM13479 for biotransformation. The drug concentrations were measured before and after a 12-h incubation by liquid-chromatography-coupled mass spectrometry (LC–MS); conditions: hungatella hathewayi, 2 µM
[5] = The drug is tested on Proteus penneri strain: ATCC35198 for biotransformation. The drug concentrations were measured before and after a 12-h incubation by liquid-chromatography-coupled mass spectrometry (LC–MS); conditions: 2 µM
[6] = The drug is tested on Clostridium spiroforme strain: DSM1552 for biotransformation. The drug concentrations were measured before and after a 12-h incubation by liquid-chromatography-coupled mass spectrometry (LC–MS); conditions: thomasclavelia spiroformis, 2 µM
[7] = The drug is tested on Bacteroides fragilis strain: T(B)9 for biotransformation. The drug concentrations were measured before and after a 12-h incubation by liquid-chromatography-coupled mass spectrometry (LC–MS); conditions: 2 µM
[8] = The drug is tested on Salmonella typhimurium strain: LT2 for biotransformation. The drug concentrations were measured before and after a 12-h incubation by liquid-chromatography-coupled mass spectrometry (LC–MS); conditions: salmonella enterica subsp. enterica, 2 µM
[9] = The drug is tested on Bifidobacterium breve strain: DSM20213 for biotransformation. The drug concentrations were measured before and after a 12-h incubation by liquid-chromatography-coupled mass spectrometry (LC–MS); conditions: 2 µM
[10] = The drug is tested on Providencia alcalifaciens strain: DSM30120 for biotransformation. The drug concentrations were measured before and after a 12-h incubation by liquid-chromatography-coupled mass spectrometry (LC–MS); conditions: 2 µM
[11] = anaerostipes sp., 12 h, 2 µM
Description: The drug is tested on Anaerostipes sp. strain: fecal isolate for biotransformation. The drug concentrations were measured before and after a 12-h incubation by liquid-chromatography-coupled mass spectrometry (LC–MS)

[12] = victivallis vadensis, 12 h, 2 µM
Description: The drug is tested on Victivallis vadensis strain: ATCC BAA-548 for biotransformation. The drug concentrations were measured before and after a 12-h incubation by liquid-chromatography-coupled mass spectrometry (LC–MS)

[13] = The drug is tested on Eggerthella lenta strain: ATCC25559 for biotransformation. The drug concentrations were measured before and after a 12-h incubation by liquid-chromatography-coupled mass spectrometry (LC–MS); conditions: 2 µM
[14] = The drug is tested on Eubacterium rectale strain: ATCC33656 for biotransformation. The drug concentrations were measured before and after a 12-h incubation by liquid-chromatography-coupled mass spectrometry (LC–MS); conditions: agathobacter rectalis, 2 µM
[15] = biological target: T1, Esterase (Phocaeicola dorei, UniProt B6W2J6); assay: (§1) The drug is tested on Bacteroides dorei strain: DSM17855 for biotransformation. The drug concentrations were measured before and after a 12-h incubation by liquid-chromatography-coupled mass spectrometry (LC–MS); format: ADME; design: dose 2 uM; conditions: 2 µM
T1 sequence (B6W2J6 whole entry): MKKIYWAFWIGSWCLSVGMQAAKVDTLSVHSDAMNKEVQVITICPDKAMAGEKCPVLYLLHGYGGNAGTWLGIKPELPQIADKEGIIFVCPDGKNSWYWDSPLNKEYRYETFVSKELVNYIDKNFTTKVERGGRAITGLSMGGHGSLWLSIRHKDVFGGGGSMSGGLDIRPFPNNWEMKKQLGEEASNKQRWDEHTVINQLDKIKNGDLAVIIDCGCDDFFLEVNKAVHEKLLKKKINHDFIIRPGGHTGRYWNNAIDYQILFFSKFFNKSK

[16] = biological target: T2, SGNH hydrolase-type esterase domain-containing protein (Phocaeicola dorei, UniProt B6VTE7); assay: as §1; format: ADME; design: dose 2 uM; conditions: 2 µM
T2 sequence (B6VTE7 whole entry): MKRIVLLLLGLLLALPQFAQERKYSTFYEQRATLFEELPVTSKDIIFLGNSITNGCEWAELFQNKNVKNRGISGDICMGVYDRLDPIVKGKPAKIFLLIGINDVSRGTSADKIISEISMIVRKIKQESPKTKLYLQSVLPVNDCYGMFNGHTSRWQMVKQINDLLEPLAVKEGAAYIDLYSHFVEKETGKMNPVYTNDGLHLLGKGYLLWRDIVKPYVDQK

[17] = biological target: T3, SGNH hydrolase-type esterase domain-containing protein (Phocaeicola dorei, UniProt B6W293); assay: as §1; format: ADME; design: dose 2 uM; conditions: 2 µM
T3 sequence (B6W293 whole entry): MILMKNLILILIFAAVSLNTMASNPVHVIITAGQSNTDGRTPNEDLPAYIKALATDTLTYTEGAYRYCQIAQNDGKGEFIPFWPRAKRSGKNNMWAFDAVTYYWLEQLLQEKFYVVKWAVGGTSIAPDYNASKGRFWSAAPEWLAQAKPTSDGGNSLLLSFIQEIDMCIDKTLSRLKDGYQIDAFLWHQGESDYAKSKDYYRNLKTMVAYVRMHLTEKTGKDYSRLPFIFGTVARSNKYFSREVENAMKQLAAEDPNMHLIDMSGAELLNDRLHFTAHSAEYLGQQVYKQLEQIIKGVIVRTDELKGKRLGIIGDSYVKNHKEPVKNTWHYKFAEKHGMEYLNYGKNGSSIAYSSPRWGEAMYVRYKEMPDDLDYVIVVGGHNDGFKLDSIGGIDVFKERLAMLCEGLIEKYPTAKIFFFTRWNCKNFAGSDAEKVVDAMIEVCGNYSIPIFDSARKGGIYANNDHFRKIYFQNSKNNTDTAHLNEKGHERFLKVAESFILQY

[18] = biological target: T4, Nitroreductase domain-containing protein (Phocaeicola dorei, UniProt B6W3P3); assay: as §1; format: ADME; design: dose 2 uM; conditions: 2 µM
T4 sequence (B6W3P3 whole entry): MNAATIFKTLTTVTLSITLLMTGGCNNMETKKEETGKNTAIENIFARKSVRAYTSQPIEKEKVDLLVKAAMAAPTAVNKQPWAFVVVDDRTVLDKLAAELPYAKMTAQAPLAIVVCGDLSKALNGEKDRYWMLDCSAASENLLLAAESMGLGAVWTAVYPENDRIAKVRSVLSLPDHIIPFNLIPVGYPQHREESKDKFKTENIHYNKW

[19] = biological target: T5, Acyltransferase 3 domain-containing protein (Phocaeicola dorei, UniProt B6W2J3); assay: as §1; format: ADME; design: dose 2 uM; conditions: 2 µM
T5 sequence (B6W2J3 whole entry): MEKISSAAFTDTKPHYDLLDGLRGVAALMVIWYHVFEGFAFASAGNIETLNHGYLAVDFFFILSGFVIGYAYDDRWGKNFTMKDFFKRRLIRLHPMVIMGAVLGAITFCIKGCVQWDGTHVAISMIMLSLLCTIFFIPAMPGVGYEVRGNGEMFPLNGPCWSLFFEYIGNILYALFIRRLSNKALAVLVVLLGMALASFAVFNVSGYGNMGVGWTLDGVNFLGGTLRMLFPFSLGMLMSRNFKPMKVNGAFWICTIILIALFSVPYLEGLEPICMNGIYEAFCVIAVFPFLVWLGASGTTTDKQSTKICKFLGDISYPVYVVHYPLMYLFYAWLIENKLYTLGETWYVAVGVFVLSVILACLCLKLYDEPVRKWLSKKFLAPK

[20] = clostridioides difficile, 12 h, 2 µM
Description: The drug is tested on Clostridium difficile strain: 120 for biotransformation. The drug concentrations were measured before and after a 12-h incubation by liquid-chromatography-coupled mass spectrometry (LC–MS)

Row | Bacterial Biotransformation [1] | Bacterial Biotransformation [2] | Bacterial Biotransformation [3] | Bacterial Biotransformation [4] | Bacterial Biotransformation [5] | Bacterial Biotransformation [6] | Bacterial Biotransformation [7] | Bacterial Biotransformation [8] | Bacterial Biotransformation [9] | Bacterial Biotransformation [10] | Bacterial Biotransformation [11] | Bacterial Biotransformation [12] | Bacterial Biotransformation [13] | Bacterial Biotransformation [14] | Bacterial Biotransformation [15] | Bacterial Biotransformation [16] | Bacterial Biotransformation [17] | Bacterial Biotransformation [18] | Bacterial Biotransformation [19] | Bacterial Biotransformation [20] | SMILES
1 | Compound NOT metabolized | Compound metabolized | Compound metabolized | Compound NOT metabolized | Compound NOT metabolized | Compound metabolized | Compound metabolized | Compound NOT metabolized | Compound NOT metabolized | Compound NOT metabolized | Compound NOT metabolized | – | – | – | – | – | – | – | – | – | N#Cc1ccc2[nH]cc(CCCCN3CCN(c4ccc5oc(C(N)=O)cc5c4)CC3)c2c1 [VILAZODONE]
2 | – | Compound metabolized | Compound NOT metabolized | – | – | – | – | – | – | – | Compound NOT metabolized | Compound NOT metabolized | Compound NOT metabolized | Compound NOT metabolized | Compound NOT metabolized | Compound NOT metabolized | Compound NOT metabolized | Compound NOT metabolized | Compound NOT metabolized | – | C[C@]12CCC(=O)C=C1[C@@H]1C[C@@H]1[C@H]1[C@@H]3[C@@H]4C[C@@H]4[C@@]4(CCC(=O)O4)[C@@]3(C)CC[C@@H]12 [DROSPIRENONE]
3 | Compound NOT metabolized | – | – | Compound NOT metabolized | – | Compound NOT metabolized | Compound metabolized | Compound NOT metabolized | – | Compound NOT metabolized | Compound NOT metabolized | – | – | Compound NOT metabolized | – | – | – | – | – | Compound NOT metabolized | Cc1nc(-c2ccc(OCC(C)C)c(C#N)c2)sc1C(=O)O [FEBUXOSTAT]
4 | Compound NOT metabolized | Compound NOT metabolized | Compound NOT metabolized | Compound NOT metabolized | Compound NOT metabolized | Compound NOT metabolized | Compound metabolized | Compound NOT metabolized | Compound NOT metabolized | Compound NOT metabolized | Compound NOT metabolized | Compound NOT metabolized | Compound NOT metabolized | Compound NOT metabolized | – | – | – | – | – | Compound NOT metabolized | Nc1nc2ccc(OC(F)(F)F)cc2s1 [RILUZOLE]
